Consider two compounds from US11510886B2, “Metformin amino acid compounds and methods of using the same” (Laboratorios Silancs S.A. DE C.V., priority 2016, dated 2022).

“Also recorded” adds a separate entry of the source. Structures can show the parent of a compound that is named as a salt. Where two headings read alike, the source gives them in different places.

Experiment [1] addresses T1, GPBP (Mus musculus, UniProt Q9EQG9).
T1 construct: endogenous in cells; host or cells: C2C12 myotubes
T1 sequence (Q9EQG9 1-624): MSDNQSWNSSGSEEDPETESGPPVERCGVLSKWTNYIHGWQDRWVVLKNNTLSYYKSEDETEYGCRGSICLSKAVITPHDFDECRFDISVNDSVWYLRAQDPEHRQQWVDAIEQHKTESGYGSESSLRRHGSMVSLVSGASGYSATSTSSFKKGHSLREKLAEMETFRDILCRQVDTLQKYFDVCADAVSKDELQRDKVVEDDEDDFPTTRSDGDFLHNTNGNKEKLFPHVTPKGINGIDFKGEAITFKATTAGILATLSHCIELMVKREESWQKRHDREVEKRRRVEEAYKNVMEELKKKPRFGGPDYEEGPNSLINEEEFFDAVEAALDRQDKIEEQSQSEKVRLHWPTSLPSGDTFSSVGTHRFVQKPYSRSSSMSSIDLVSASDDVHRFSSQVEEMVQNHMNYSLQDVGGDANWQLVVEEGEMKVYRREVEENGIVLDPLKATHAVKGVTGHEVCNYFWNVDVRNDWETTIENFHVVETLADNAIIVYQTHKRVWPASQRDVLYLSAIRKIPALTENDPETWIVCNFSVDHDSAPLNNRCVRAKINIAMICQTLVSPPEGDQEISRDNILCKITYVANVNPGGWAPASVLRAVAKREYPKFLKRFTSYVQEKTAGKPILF
Put plainly: GPBP phosphorylation state in C2C12 myotubes (Western blot). As to conditions: 3 hours (FIG. 65). The format is cell-based, Mice. Here is the method: FIG. 65. […]. Similar quantities of each extract were analyzed using Western blot (SDS-PAGE and electrotransfer), with the indicated antibodies and chemiluminescence (ECL Prime, GE Healthcare). The arrow marks a dephosphorylated band, with higher abundance in SLN10-treated cells than in non-treated or SLN1-treated cells.
On the technique in general: Immunoblotting shows a protein as a band on a membrane.

The subject of experiment [2] is RAW264.7 macrophages and L1 adipocytes co-cultures. Put plainly: Glucose consumption in macrophage and adipocyte co-cultures. The format is cell-based, Mice. As to conditions: 10 mM, 30 hours (FIG. 80).
The subject of another experiment is RAW264.7 macrophages. Briefly: IL-10 expression in RAW264.7 macrophages stimulated with LPS and IFN-γ. The format is cell-based. On the procedure:
FIG. 92. […]. After several incubation times, cells were processed as shown in FIG. 79 for RT-qPCR analysis, and IL-10 relative quantification (RQ) was determined with a specific probe (Taqman®, Life Technologies) using HPRT-1 as a normalizer and non-stimulated cells as a reference point (time 0). In the Table in FIG. 92, the area under the curve (AUC) is indicated for each of the series.
FIG. 93. The IL-10 expression depends on GPBP-1. […]. […] The silencing efficacy was tested by Western blot with RAW264.7 (WT) and pSi-GPBP-1 cell lysates (50 μg), using specific antibodies (right).
FIG. 94. The IL-10 expression depends on cGPBP-1. In A, an assay scheme is shown; […]. […] In B, the relative expression of IL-10 in RAW264.7 macrophages cultured with conditioned media, obtained as specified in A, is shown. The analysis was carried out by quantitative RT and PCR, using HPRT-1 as a normalizer. In this case, the reference point were cells treated with a conditioned medium in absence of N26 (RQ=1 value), and the increased IL-10 expression was verified; the analysis included non-stimulated cells cultured in a fresh, non-conditioned medium (cells).

The target of experiment [3] is T2, GPBP (Homo sapiens, UniProt Q9Y5P4).
T2 sequence (Q9Y5P4 1-624): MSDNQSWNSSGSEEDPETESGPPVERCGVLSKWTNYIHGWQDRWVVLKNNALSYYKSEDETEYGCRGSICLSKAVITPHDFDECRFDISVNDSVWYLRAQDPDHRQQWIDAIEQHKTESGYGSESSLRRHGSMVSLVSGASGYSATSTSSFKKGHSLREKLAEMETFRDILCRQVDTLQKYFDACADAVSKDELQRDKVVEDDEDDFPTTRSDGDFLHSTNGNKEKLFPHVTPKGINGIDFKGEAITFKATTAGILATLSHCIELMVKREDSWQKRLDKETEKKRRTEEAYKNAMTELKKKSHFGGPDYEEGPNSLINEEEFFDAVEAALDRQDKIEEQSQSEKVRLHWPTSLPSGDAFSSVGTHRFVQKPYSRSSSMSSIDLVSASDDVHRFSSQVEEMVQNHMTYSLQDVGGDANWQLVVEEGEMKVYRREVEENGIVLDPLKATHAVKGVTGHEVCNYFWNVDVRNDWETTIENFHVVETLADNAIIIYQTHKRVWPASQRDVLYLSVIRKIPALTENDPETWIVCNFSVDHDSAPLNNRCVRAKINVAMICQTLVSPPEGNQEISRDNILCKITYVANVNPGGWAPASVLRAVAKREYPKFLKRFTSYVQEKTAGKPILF
The format is binding.
Experimental: GPBP·SLN10n (Equation 2) where
The equation above was represented with the F data obtained at 26° C.

Experiment [4] relates to GPBP, LKB1/STRADα/MO25, AMPK, AS160. Put plainly: In vitro phosphorylation of GPBP with LKB1 complex, AMPK and AS160. As to conditions: LKB1 complex without GPBP.
Text: Reactions were stopped with a reducing loading buffer, analyzed by SDS-PAGE, and electrotransferred to PVDF membrane. Membranes were exposed to autoradiography during the indicated exposition times (exp.). Arrows show the identity of the bands observed in autoradiographs.
Arrows and lines to the right of the image show the identity of phosphorylated polypeptides. Upper images and those in the middle come from autoradiographs taken at several exposure times.
To understand this phenomenon at the molecular level, we conducted in vitro phosphorylation experiments with GPBP and the commercial protein complex LKB1/STRADα/MO25 (Millipore) (FIG. 72). STRADα and MO25 are supporters necessary to activate LKB1. […] It cannot be excluded, however, that the simple interaction of kinases activates corresponding autophosphorylation processes.
To further explain the above results, a more physiological approach in the in vitro assays was performed. A combination of LKB1/STRADα, GPBP, and AMPK/AS160 was used, i.e., each kinase was added with its own substrate except GPBP, which acted as both an enzyme and substrate at the same time (autophosphorylation) (FIG. 73).

Regarding metformin lysinate, the “GPBP phosphorylation state in myotubes” value at GPBP [1] (listed as SLN10) is on record as “induce GPBP dephosphorylation; also recorded: induced a remarkable GPBP dephosphorylation”. Besides, in experiment [2], the “glucose consumption of co-cultures” value is on record as “stronger”. In addition, in the experiment on RAW264.7 macrophages, the IL-10 expression result was “increase IL-10 expression; also recorded: markedly superior” and the “dependence of IL-10 expression on GPBP expression” value is given as “depended largely on the GPBP expression”. In addition, on GPBP [3], the “GPBP fluorescence emission at 370 nm (F370)” value is “steady reduction (extinction)”, the “Ksv (Stern-Volmer constant)” value was 108800 M⁻¹ and the “n (number of SLN10 molecules bound to GPBP)” value is 0.7. Further, the “LKB1 autophosphorylation and STRADα phosphorylation” value in experiment [4] is “trigger a discrete LKB1 autophosphorylation”.

Consider `CN(C)C(=N)N=C(N)N` [Metformin hydrochloride, metformin hydrochloride, reference compound], for which, on GPBP [1], the “GPBP phosphorylation state in myotubes” value is listed as “barely altered the phosphorylation state”. Also, the IL-10 expression entry with RAW264.7 macrophages (10 mM, LPS and IFN-γ (FIG. 92)) is “increase IL-10 expression”. Further, in the experiment with RAW264.7 macrophages (pSi-GPBP-1 macrophages (FIG. 93)), the “dependence of IL-10 expression on GPBP expression” value is given as “virtually GPBP independent”.
